ChEMBL document CHEMBL5620397, “Design, synthesis and biological evaluation of 3-substituted-2-thioxothiazolidin-4-one (rhodanine) derivatives as antitubercular agents against Mycobacterium tuberculosis protein tyrosine phosphatase B” (Eur J Med Chem, 2023)
Converted amounts (≈) assume the structure as drawn.

How the values were obtained:
[1] = Cytotoxicity against mouse J774.G8 cells after 48 hrs by MTT assay; format: functional, cell-based; details: J774.G8, 48 h
Vero = assay: cells; details: Chlorocebus sabaeus, 48 h
Description: Cytotoxicity against african green monkey Vero cells after 48 hrs by MTT assay

[2] = tested on: Mycobacterium tuberculosis; assay: Antituberculosis activity against Mycobacterium tuberculosis H37Rv by microplate alamar blue assay; format: functional
[3] = target: T1, Triple specificity protein phosphatase PtpB (Mycobacterium tuberculosis (strain ATCC 25618 / H37Rv)) (UniProt I6WXK4); assay: (§1) Inhibition of Mycobacterium tuberculosis H37Rv ptpB expressed in Escherichia coli BL21(DE3) at 50 uM using pNPP as substrate preincubated for 10 mins followed by substrate addition and measured for 5 mins by spectrophotometer analysis relative to control; details: time 15.0 min
T1 sequence (whole entry): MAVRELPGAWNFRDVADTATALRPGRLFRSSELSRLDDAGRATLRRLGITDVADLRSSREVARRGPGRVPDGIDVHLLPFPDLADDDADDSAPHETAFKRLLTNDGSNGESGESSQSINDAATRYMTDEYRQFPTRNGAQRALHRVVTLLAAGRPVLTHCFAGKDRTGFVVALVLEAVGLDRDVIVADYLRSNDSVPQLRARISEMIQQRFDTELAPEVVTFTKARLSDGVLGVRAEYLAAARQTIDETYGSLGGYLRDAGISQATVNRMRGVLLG

[4] = target: T2, Triple specificity protein phosphatase PtpB (Mycobacterium tuberculosis (strain ATCC 25618 / H37Rv), UniProt I6WXK4); assay: Inhibition of Mycobacterium tuberculosis H37Rv ptpB expressed in Escherichia coli BL21(DE3) using pNPP as substrate preincubated for 10 mins followed by substrate addition and measured for 5 mins by spectrophotometer analysis
T2 sequence (I6WXK4 whole entry): T1 sequence (whole entry)

[5] = target: T3, Tyrosine-protein phosphatase non-receptor type 1 (Homo sapiens, UniProt P18031); assay: Inhibition of recombinant human PTP1B using pNPP as substrate preincubated for 5 mins followed by substrate addition and measured for 10 mins; format: toxicity
T3 sequence (P18031 whole entry): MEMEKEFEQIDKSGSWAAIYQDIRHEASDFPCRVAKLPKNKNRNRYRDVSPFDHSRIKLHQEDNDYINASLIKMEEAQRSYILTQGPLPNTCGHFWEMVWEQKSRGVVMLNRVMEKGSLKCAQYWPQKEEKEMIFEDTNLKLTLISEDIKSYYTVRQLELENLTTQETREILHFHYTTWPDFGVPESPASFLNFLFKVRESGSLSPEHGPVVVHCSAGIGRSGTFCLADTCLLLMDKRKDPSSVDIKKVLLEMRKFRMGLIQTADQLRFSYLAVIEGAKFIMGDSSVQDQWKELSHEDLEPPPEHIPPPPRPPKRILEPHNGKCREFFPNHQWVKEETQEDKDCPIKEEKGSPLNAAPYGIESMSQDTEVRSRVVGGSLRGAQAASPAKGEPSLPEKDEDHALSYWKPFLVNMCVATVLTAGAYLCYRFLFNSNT

[6] = Metabolic stability in mouse liver microsomes assessed as substrate remaining preincubated for 5 mins followed by NADPH addition and measured upto 30 mins by LC-MS/MS assay; format: ADME, Microsome; details: time < 35 min, read-out: Stability
[7] = Metabolic stability in mouse liver microsomes assessed as intrinsic clearance per mg protein preincubated for 5 mins followed by NADPH addition and measured upto 30 mins by LC-MS/MS assay; format: ADME, Microsome; details: time < 35 min, read-out: CLH
[8] = Metabolic stability in human liver microsomes assessed as half life preincubated for 5 mins followed by NADPH addition and measured upto 30 mins by LC-MS/MS assay; format: ADME, Microsome; details: time < 35 min
[9] = tested on: PTP1B versus M. tuberculosis ptpB; assay: Selectivity index, ratio of IC50 for human PTP1B to Mycobacterium tuberculosis H37Rv ptpB; format: toxicity; details: read-out: Ratio IC50
[10] = target: T4, Low molecular weight protein-tyrosine phosphatase A (Mycobacterium tuberculosis) (UniProt P9WIA1); assay: Inhibition of Mycobacterium tuberculosis H37Rv ptpA expressed in Escherichia coli BL21(DE3) at 10 uM using pNPP as substrate preincubated for 10 mins followed by substrate addition and measured for 5 mins by spectrophotometer analysis relative to control; details: time 15.0 min
T4 sequence (whole entry): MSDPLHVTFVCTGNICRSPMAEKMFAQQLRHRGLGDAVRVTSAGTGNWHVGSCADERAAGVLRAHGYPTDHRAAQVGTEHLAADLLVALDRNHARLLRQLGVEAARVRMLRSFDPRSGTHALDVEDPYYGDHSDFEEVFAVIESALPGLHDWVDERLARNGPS

[11] = Metabolic stability in mouse liver microsomes assessed as half life preincubated for 5 mins followed by NADPH addition and measured upto 30 mins by LC-MS/MS assay; format: ADME, Microsome; details: time < 35 min
[12] = Metabolic stability in human liver microsomes in absence of NADPH by LC-MS/MS assay; format: ADME, Microsome
[13] = Metabolic stability in mouse liver microsomes in absence of NADPH by LC-MS/MS assay; format: ADME, Microsome
[14] = Metabolic stability in human liver microsomes assessed as substrate remaining preincubated for 5 mins followed by NADPH addition and measured upto 30 mins by LC-MS/MS assay; format: ADME, Microsome; details: time < 35 min, read-out: Stability
[15] = tested on: Mycobacterium tuberculosis; assay: Antituberculosis activity against Mycobacterium tuberculosis H37Rv in mouse J774A.1 cells assessed as reduction in intracellular bacterial burden measured after 21 days by agar plate method; format: functional, organism-based; details: J774.A1, dose 1-10 µg/ml, time 21.0 day
[16] = Metabolic stability in human liver microsomes assessed as intrinsic clearance per mg protein preincubated for 5 mins followed by NADPH addition and measured upto 30 mins by LC-MS/MS assay; format: ADME, Microsome; details: time < 35 min, read-out: CLH
[17] = target: T5, Phosphotyrosine protein phosphatase (Mycobacterium tuberculosis, UniProt A0A045ISB3); assay: Inhibition of Mycobacterium tuberculosis ptpB
T5 sequence (A0A045ISB3 whole entry): T1 sequence (whole entry)

[18] = target: T1, Triple specificity protein phosphatase PtpB (Mycobacterium tuberculosis (strain ATCC 25618 / H37Rv)); assay: Inhibition of Mycobacterium tuberculosis H37Rv ptpB expressed in Escherichia coli BL21(DE3) at 10 uM using pNPP as substrate preincubated for 10 mins followed by substrate addition and measured for 5 mins by spectrophotometer analysis relative to control; details: time 15.0 min
[19] = target: Triple specificity protein phosphatase PtpB (Mycobacterium tuberculosis (strain ATCC 25618 / H37Rv)) (UniProt I6WXK4); assay: as §1; details: time 15.0 min; remark: listed apart in the source

Row | Compound | inhibition [3] [%] | IC50 [4] [nM] | IC50 [5] [nM] | also measured
1 | NNC(=O)c1ccncc1 [ISONIAZID] |  |  |  | IC50 [1]: > 64 µg/mL; IC50 (Vero): > 64 µg/mL; MIC [2]: 0.038 µg/mL (≈ 0.277 µM)
2 | O=C(O)CN1C(=O)/C(=C/c2ccc(-c3ccc(F)c(C(F)(F)F)c3)cc2)SC1=S | 99.4 | 16400 |  | 
3 | O=C(O)[C@H](C1CCCCC1)N1C(=O)/C(=C/c2ccc(-c3cccc(C(F)(F)F)c3)cc2)SC1=S | 96.5 | 350 | 1750 | remaining at 0.5 h [6]: 80%; microsomal CLint [7]: < 22.1 µL/min/mg; half-life [8]: > 1.55 h; selectivity ratio [9]: 5; IC50 [1]: 38 µg/mL (≈ 75.2 µM); inhibition [10]: 16.6%; half-life [11]: > 1.55 h; Stability [12]: Stable; Stability [13]: Stable; remaining at 0.5 h [14]: 101%; IC50 (Vero): 30.6 µg/mL (≈ 60.5 µM); MIC [2]: 31.4 µg/mL (≈ 62.1 µM); Activity [15]: Dose-Dependent Effect; microsomal CLint [16]: < 6.1 µL/min/mg
4 | CCCC[C@H](C(=O)O)N1C(=O)/C(=C/c2ccc(-c3ccc(F)c(C(F)(F)F)c3)cc2)SC1=S | 26.4 |  |  | 
5 | CCOC(=O)C1=C(C)Oc2nc(C)n(Cc3cn([C@@H]4O[C@H](COC(C)=O)[C@@H](OC(C)=O)[C@H](OC(C)=O)[C@H]4OC(C)=O)nn3)c(=O)c2C1c1cc(OC)c(OC)c(OC)c1 (some centres undefined) |  |  |  | IC50 [17]: 1560 nM
6 | O=C(O)[C@H](C1CCCCC1)N1C(=O)/C(=C/c2ccc(-c3ccc(C(F)(F)F)cc3)cc2)SC1=S | 103 | 3130 |  | 
7 | CCCC[C@@H](C(=O)O)N1C(=O)/C(=C/c2ccc(-c3ccccc3)cc2)SC1=S | 94 | 620 |  | 
8 | CCCC[C@@H](C(=O)O)N1C(=O)/C(=C/c2ccc(-c3ccc(OC)cc3)cc2)SC1=S | 99.4 | 550 | 770 | 
9 | O=C(O)[C@H](C1CCCCC1)N1C(=O)/C(=C/c2ccc(-c3ccccc3C(F)(F)F)cc2)SC1=S | 93 | 920 | 1600 | 
10 | CCCC[C@@H](C(=O)O)N1C(=O)/C(=C/c2ccc(-c3cccc(C(F)(F)F)c3)c3ccccc23)SC1=S |  | 590 | 40 | inhibition [18]: 98.6%
11 | O=C(O)[C@H](C1CCCCC1)N1C(=O)/C(=C/c2ccc(-c3cccc(Cl)c3)cc2)SC1=S | 106 | 990 | 1120 | 
12 | O=C1OC(c2ccccc2C(F)(F)F)C(c2ccc3ccccc3n2)=C1O (centres undefined) |  |  |  | IC50 [17]: 31100 nM
13 | CCCC[C@@H](C(=O)O)N1C(=O)/C(=C/c2ccc(-c3cccc(OC)c3)cc2)SC1=S | 100 | 750 | 430 | 
14 | CCCC[C@@H](C(=O)O)N1C(=O)/C(=C/c2ccc(-c3ccncc3Cl)cc2)SC1=S | 97.1 | 800 |  | 
15 | O=C(O)[C@@H](C1CCCCC1)N1C(=O)/C(=C/c2ccc(-c3ccc(F)c(C(F)(F)F)c3)cc2)SC1=S | 30.5 |  |  | 
16 | CCCC[C@@H](C(=O)O)N1C(=O)/C(=C/c2ccc(-c3ccc(F)c(C(F)(F)F)c3)cc2)SC1=S | 106 | 480 | 11300 | remaining at 0.5 h [6]: 101%; microsomal CLint [7]: < 22.1 µL/min/mg; half-life [8]: > 1.55 h; selectivity ratio [9]: 20; IC50 [1]: 47.7 µg/mL (≈ 95.9 µM); inhibition [10]: 20.2%; half-life [11]: > 1.55 h; Stability [12]: Stable; Stability [13]: Stable; remaining at 0.5 h [14]: 96.9%; IC50 (Vero): 28.2 µg/mL (≈ 56.7 µM); MIC [2]: 31.7 µg/mL (≈ 63.7 µM); Activity [15]: Dose-Dependent Effect; microsomal CLint [16]: < 6.1 µL/min/mg
17 | SODIUM ORTHOVANAD |  |  |  | inhibition [19]: 97.4%

Row | Compound | inhibition [3] [%] | IC50 [4] [nM] | IC50 [5] [nM] | also measured
18 | CCCC[C@@H](C(=O)O)N1C(=O)/C(=C/c2ccc(-c3ccc(Cl)s3)cc2)SC1=S | 98.4 | 430 | 200 | 
19 | O=C(O)[C@H](c1ccccc1)N1C(=O)/C(=C/c2ccc(-c3ccc(F)c(C(F)(F)F)c3)cc2)SC1=S | 97 | 2340 |  | 
20 | CCCC[C@@H](C(=O)O)N1C(=O)/C(=C/c2ccc(-c3ccc(F)c(C(F)(F)F)c3)c3ccccc23)SC1=S |  | 670 | 5540 | inhibition [18]: 105%
21 | O=C(O)[C@H](Cc1ccccc1)N1C(=O)/C(=C/c2ccc(-c3ccc(F)c(C(F)(F)F)c3)cc2)SC1=S | 71.3 | 920 |  | 
22 | O=C(O)[C@H](C1CCCCC1)N1C(=O)/C(=C/c2ccc(-c3ccc(F)c(C(F)(F)F)c3)cc2)SC1=S | 101 | 490 | 5370 | remaining at 0.5 h [6]: 101%; microsomal CLint [7]: < 22.1 µL/min/mg; half-life [8]: > 1.55 h; IC50 [1]: > 64 µg/mL; inhibition [10]: 27.1%; half-life [11]: > 1.55 h; Stability [12]: Stable; Stability [13]: Stable; remaining at 0.5 h [14]: 101%; IC50 (Vero): 30.2 µg/mL (≈ 57.7 µM); MIC [2]: 30.5 µg/mL (≈ 58.3 µM); Activity [15]: Dose-Dependent Effect; microsomal CLint [16]: < 6.1 µL/min/mg
23 | Cc1onc(C(=O)O)c1-c1cccc(-c2cc(Cl)c(O)c(Cl)c2)c1 |  |  |  | IC50 [17]: 2980 nM
24 | CCCC[C@@H](C(=O)O)N1C(=O)/C(=C/c2ccc(-c3cccc(Cl)c3)cc2)SC1=S | 102 | 380 | 1870 | selectivity ratio [9]: 5
25 | O=C(O)[C@@H](Cc1ccccc1)N1C(=O)/C(=C/c2ccc(-c3ccc(F)c(C(F)(F)F)c3)cc2)SC1=S | 56.8 |  |  | 
26 | CCCC[C@@H](C(=O)O)N1C(=O)/C(=C/c2ccc(-c3cccc(Cl)c3)c3ccccc23)SC1=S |  | 670 | 1530 | inhibition [18]: 99.9%
27 | CCCC[C@@H](C(=O)O)N1C(=O)/C(=C/c2ccc(-c3cccc(Cl)c3)c(Cl)c2)SC1=S |  | 330 | 940 | inhibition [18]: 102%
28 | CCCC[C@@H](C(=O)O)N1C(=O)/C(=C/c2ccc(-c3cccc(Cl)c3)cn2)SC1=S |  | 530 | 390 | inhibition [18]: 99.5%
29 | CCCC[C@@H](C(=O)O)N1C(=O)/C(=C/c2ccc(-c3cccc(Cl)c3)s2)SC1=S |  | 440 | 160 | inhibition [18]: 99%
30 | CCCC[C@@H](C(=O)O)N1C(=O)/C(=C/c2ccc(-c3cccc(C(F)(F)F)c3)c(Cl)c2)SC1=S |  | 420 | 1530 | inhibition [18]: 99.6%
31 | CCCC[C@@H](C(=O)O)N1C(=O)/C(=C/c2ccc(-c3ccc(Cl)cc3)cc2)SC1=S | 98.9 | 600 | 1510 | 
32 | CCN(CC)c1ccc(/C=C2\SC(=S)NC2=O)c(OCc2ccc(Cl)cc2Cl)c1 | > 35 |  |  | 
33 | CCCC[C@@H](C(=O)O)N1C(=O)/C(=C/c2ccc(-c3ccc(C(F)(F)F)cc3)cc2)SC1=S | 100 | 860 | 1340 | 
